Series [1] has as its system HIV-1. Description: Experiment la(1): HIV-1 infected 81-66-45 cells. It counts as cell-based.
Series [2] concerns HIV-1. Description: HIV-1 production from patients' lymphocytes cocultured with PHA-stimulated normal PBL, p24 antigen capture. The format is cell-based. The note with it: 3.75 µM or higher; Figure 14. How it is done:
HIV-1 production from an AIDS patients' lymphocytes was carried out as described previously. Briefly, 10x10^6 patients' lymphocytes were cocultured with 5x10^6 PHA-stimulated normal PBL in RPMI 1640 medium containing 20% FBS, 5% interleukin 2 (Cellular Products, Buffalo, NY) and various concentrations of IPA. The culture was continued for 4 weeks. The culture was fed twice a week with 2-3x10^6 PHA-stimulated normal PBL. Culture medium was withdrawn twice a week and tested for the presence of HIV by the antigem capture test. Culture medium was replaced with new medium with or without drug at 3-4 days intervals.
A study of IPA inhibition of HIV-1 production from lymphocytes of a HIV-1 seropositive patient was carried out. For this purpose, lymphocytes from an AIDS patient and an asymtomatic patient were cocultured with PHA stimulated PBL in the presence or absence of IPA. Results shown in Figure 14 indicate that IPA inhibited HIV-1 production in a dose dependent manner. […] In contrast, HIV-1 was detected in untreated cultures as early as 7 days following cocultivation.

A short description of series [3]: Case study: AIDS patient with hairy leukoplakia, IPA oral fluid dose or mouth wash. It counts as in vivo, human. An excerpt: When the indication reappeared, following a period of time (several days), the administration of the compound gave further relief.
The subject of another series is PBL. Nature of the series: Growth of PBL following cocultivation of patient's lymphocytes with PHA-PBL. It counts as cell-based, human. The note with it: 30 u.M or lower; up to 10 days in culture.
The subject of a further series is HIV-1 and CAEV. Nature of the series: Inhibition of virus replication, summary over viruses and cell lines of Figure 15. It counts as cell-based. The conditions noted are these: depending upon the virus and cell line. How it is done:
Selected results presented in Tables la(a), la(b) and la(c) are plotted in Figure 15.
It is apparent from Figure 15 that IPA appears to inhibit the replication of HIV-1 and CAEV at concentrations ranging from 3 to 30 µM and above. Without appropriate toxicity data it is not possible to calculate the therapeutic index at the various drug concentrations. Nevertheless, the IC50 can be seen to vary between approximately 2-6 u.M, depending upon the virus and cell line, and the ICso varies between 3-30 µM in these experiments.

In a further series the test system is human mononuclear cells. Description: Mixed leukocyte culture (MLC) reaction. It counts as cell-based. How it is done: T and B lymphocytes from normal human donors were incubated for 30 minutes at various dose levels of the compounds indicated. The lymphocytes were added in triplicate wells in gentamicin and phytohemagglutinin (PHA) (a T cell mitogen), pokeweed mitogen (PWM) (a B cell mitogen) and allogeneic mononuclear cells (mixed leukocyte cultures; MLC) or media containing the above additives. The lymphocyte blastogenesis assay is described in detail below.
Mixed leukocyte culture (MLC) reactions may be used to evaluate the ability of human mononuclear cells to recognize and immunologically react to human histocompatibility antigen (measurement of the ability of the cells to mount a primary immune response to an antigen). Cultures of one set of human mononuclear cells were reacted with mononuclear cells from an unrelated donor in lymphocyte blastogenesis assays and the proliferation of the first set of cells was quantitated. The results are presented in Charts la(e) (v) and la(e) (vi) (Figs. 5 and 6). Again, as with lymphocyte blastogenesis with mitogens, the MLC was run in replicates of three and a mean value obtained.
• 1. Mononuclear cells are separated from whole blood by differential centrifugation using a synthetic separation medium, or are thawed from a cryopreserved preparation. The cells are washed and resuspended in media (RPMI - 1640, L-Glutamine 2mM, Herpes Buffer 25mM, Gentamicin 50 ug/ml, Human AB Serum-heat inactivated (56°, 30°) 20%). • 2. A viable cell count is determined. • 3. Cell concentration is adjusted to 2 x 10^6 /ml in media. • 4. The cell suspension is added to wells of a 96-well flat bottom plate in 0.1 ml aliquots (2 x 10^5 cells). • 5. The selected mitogens and/or antigens (in media without serum) are added to the cells in the wells also in 0.1 ml aliquots. • 6. The cultures are incubated for 3-7 days (depending upon the mitogen or antigen) at 37° C in a humidified 5% C02 atmosphere. • 7. […] The vials are counted in a liquid scintillation counter for one minute where the amount of incorporated ^3HTdR is determined.

Series [4] concerns HIV-1. Description: Experiment la(b): H9 cells, HIV-1, antibody assay. The format is cell-based. The conditions noted are these: Human immunodeficiency virus 1. The method, then:
Fresh macrophage cultures were obtained by incubation of mononuclear cells obtained from a leukopak directly in the wells of a microtiter plate having 6 wells per row. After removal of non-adherent cells, each row of the adherent macrophages was infected with 10-fold serial dilutions of HIV-I, with the use of polybrene to enhance uptake of the virus. After one to two hours, the virus inoculum was removed and replaced with fresh normal growth medium. The fresh medium for each row contained a particular concentration of AZT, dideoxy cytidine (ddC), or compound la, as indicated by the left-hand column of Table la(a). The first row of wells acted as a control, and to it was added fresh medium containing none of the three drugs. Medium levels were maintained for two to four weeks to allow replication of the virus to take place, with at least one complete fluid change to remove residual virus inoculum. The contents of each well were then tested for the level of HIV p24 antigen present using a commercially available antigen capture kit employing a radio-immunoassay which can detect as little as 10'^9gm of p24 present in a sample. The above procedure was done in duplicate runs.
A procedure similar to that followed in Experiment la(a) was followed using infected H9 cells, H9 cells being a permanent human T-cell line.
A procedure similar to that followed in Experiment la(a) was followed using infected H9 cells, being a permanent human T-cell line.

Each structure is given as a SMILES string.

For `CC(C)=CCNc1ncnc2c1ncn2[C@@H]1O[C@H](CO)[C@@H](O)[C@H]1O` [IPA, N^6-(Δ^2-isopentenyl) adenosine], the IC50 in the series on HIV-1 [1] (Human immunodeficiency virus 1, from Figures 16 and 17, read-out: IC50 - The concentration of IPA which inhibits the replication of HIV-1 by 50%) was 6 µM; in the series with HIV-1 and CAEV (approximately) it was 2 to 6 µM; in the series with HIV-1 [4] (H9, HIV-1, as read from Figure 15, read-out: IC50) it was 2 µM; in the series on HIV-1 [4] (H9 Cells, from Figures 16 and 17, read-out: IC50 - The concentration of IPA which inhibits the replication of HIV-1 by 50%), 6 µM. Also, the IC90 is 10 µM in the series on HIV-1 [1] (Human immunodeficiency virus 1, from Figures 16 and 17, read-out: IC90 - The concentration of IPA which inhibits the replication of HIV-1 by 90%); 3 µM in the series with HIV-1 [4] (H9, HIV-1, as read from Figure 15, read-out: IC90); 10 µM in the series with HIV-1 [4] (H9 Cells, from Figures 16 and 17, read-out: IC90 - The concentration of IPA which inhibits the replication of HIV-1 by 90%). In addition, the “Virus production (HIV-1 p24 antigen capture assay)” value with HIV-1 [2] is given as “completely blocked”. For the same compound, in series [3], the “relief of hairy leukoplakia” value was “complete relief”. Further, in series [3], the “time to relief of the indication” value was “within seven days”. Further, in the series with PBL, the “cytotoxic effect on the growth of viable PHA stimulated PBL” value was “did not have any significant cytotoxic effect”. Besides, in the series on HIV-1 and CAEV, the ICso was 3 to 30 µM. Moreover, in the series with human mononuclear cells (1 µM), the “reduction in MLC reactivity” value was 50%. Besides, the MLC reactivity entry is reported as “No effect” with human mononuclear cells (10 µM) and “slight increase” in the series with human mononuclear cells (100 u.M).

The record behind these values is patent EP0462621A2, “Use of particular compounds for manufacture of pharmaceutical formulations for treatment against various parasites, mycoplasmas, other indications and other infections” (Prendergast, Patrick Thomas, priority 1990, dated 1991).
